Read-outs that look alike come from different tables or passages of the source.
Tests used:
[1] = molecular target: T1, MAO-B (Rattus norvegicus, UniProt P19643); test: Inhibition of MAO activity in vitro, PEA as substrate; assay type: biochemical; set-up: The MAO enzyme source was a homogenate of rat brain in 0.3M sucrose; from tissue; host or cells: rat brain homogenate, 600 g supernatant
T1 sequence (P19643 1-520): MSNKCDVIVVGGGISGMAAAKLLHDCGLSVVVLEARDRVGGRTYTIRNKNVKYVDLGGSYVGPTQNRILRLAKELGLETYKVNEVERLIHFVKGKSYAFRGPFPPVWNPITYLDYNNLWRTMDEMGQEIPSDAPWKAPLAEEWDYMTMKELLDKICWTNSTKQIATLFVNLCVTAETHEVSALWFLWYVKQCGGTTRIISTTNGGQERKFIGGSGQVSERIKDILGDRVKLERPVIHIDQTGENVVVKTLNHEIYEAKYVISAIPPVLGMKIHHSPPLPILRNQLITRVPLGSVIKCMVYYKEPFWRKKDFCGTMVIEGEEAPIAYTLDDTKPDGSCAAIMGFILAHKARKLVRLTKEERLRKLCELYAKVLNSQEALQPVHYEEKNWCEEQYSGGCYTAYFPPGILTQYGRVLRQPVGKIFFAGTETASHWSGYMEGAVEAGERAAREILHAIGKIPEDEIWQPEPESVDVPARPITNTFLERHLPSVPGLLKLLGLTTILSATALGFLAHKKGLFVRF
Procedure: (§1) Substrate concentrations used were 50 μM (PEA) and 1 mM (5-HT).

[2] = molecular target: T2, Human erythrocyte acetylcholinesterase (Homo sapiens, UniProt P22303); test: biochemical; assay type: biochemical
T2 construct: Human erythrocyte acetylcholinesterase (type XIII, Sigma Israel); purchased Sigma Israel type XIII; host or cells: human erythrocytes
T2 sequence (P22303 32-617 isoform P22303-2 limits assumed): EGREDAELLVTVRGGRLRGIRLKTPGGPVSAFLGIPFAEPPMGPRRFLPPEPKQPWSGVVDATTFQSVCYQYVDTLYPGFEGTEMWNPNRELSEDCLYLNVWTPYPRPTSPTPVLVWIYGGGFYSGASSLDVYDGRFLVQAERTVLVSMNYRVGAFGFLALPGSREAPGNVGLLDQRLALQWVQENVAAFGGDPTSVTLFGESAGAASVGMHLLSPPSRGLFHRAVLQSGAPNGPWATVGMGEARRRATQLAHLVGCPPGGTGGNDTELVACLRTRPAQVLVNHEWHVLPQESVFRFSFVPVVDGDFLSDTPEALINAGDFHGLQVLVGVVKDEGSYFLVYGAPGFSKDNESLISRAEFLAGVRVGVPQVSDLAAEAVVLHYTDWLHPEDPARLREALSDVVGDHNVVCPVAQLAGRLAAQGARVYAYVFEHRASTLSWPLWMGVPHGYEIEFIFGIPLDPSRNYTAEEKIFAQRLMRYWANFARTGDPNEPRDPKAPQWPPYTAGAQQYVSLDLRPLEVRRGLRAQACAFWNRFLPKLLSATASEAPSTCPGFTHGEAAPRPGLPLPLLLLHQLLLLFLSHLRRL
Procedure: Human erythrocyte acetylcholinesterase (type XIII, Sigma Israel), was prepared in a stock solution of 1 U/ml, containing Triton (1%) and bovine serum albumin (0.05%) in phosphate buffer (pH 8). The enzyme (0.05U) was incubated with 3-5 different concentrations of test compound (in triplicate) for periods of from 15 to 60 minutes at 37° C. […] The percentage inhibition of AChE by each concentration of drug is calculated by comparison with that of enzyme in the absence of drug.

[3] = molecular target: T3, MAO-A (Mus musculus, UniProt Q64133); test: Inhibition of MAO activity ex vivo (brain); assay type: in vivo, mice; conditions: mice, brain tissue
T3 construct: from tissue; host or cells: mouse brain
T3 sequence (Q64133 1-526): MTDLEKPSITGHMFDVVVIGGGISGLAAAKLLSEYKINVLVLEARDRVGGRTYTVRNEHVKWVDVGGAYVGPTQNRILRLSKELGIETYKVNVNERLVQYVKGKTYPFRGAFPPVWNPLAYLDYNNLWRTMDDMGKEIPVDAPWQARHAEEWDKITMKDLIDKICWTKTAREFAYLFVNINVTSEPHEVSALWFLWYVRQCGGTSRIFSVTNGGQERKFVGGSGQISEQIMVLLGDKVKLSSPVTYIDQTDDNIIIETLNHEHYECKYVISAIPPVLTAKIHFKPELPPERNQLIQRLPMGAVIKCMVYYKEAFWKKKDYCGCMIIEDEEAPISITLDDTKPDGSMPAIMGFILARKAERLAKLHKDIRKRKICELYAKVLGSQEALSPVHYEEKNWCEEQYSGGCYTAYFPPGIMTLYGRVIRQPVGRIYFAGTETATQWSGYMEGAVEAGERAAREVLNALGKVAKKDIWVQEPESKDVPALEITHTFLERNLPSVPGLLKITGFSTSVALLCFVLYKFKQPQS
Procedure: as §1
(§2) Male Sabra mice, weighing 45-50 g were injected with test compound solutions (prepared in 0.9% saline). Each dose was administered to two or three mice. The mice were sacrificed two hours after drug administration or at a time corresponding to the peak AChE inhibition time (see Table 11). The brain and liver were rapidly dissected and stored in appropriate vials on ice. The tissues were weighed, diluted to ½ in sucrose 0.3M and stored at −20° C. before performance of the MAO assay described above. The results given in Table 11 relate to measurements made on brain tissue only.

[4] = molecular target: T4, MAO-B (Mus musculus, UniProt Q8BW75); test: Inhibition of MAO activity ex vivo (brain); assay type: in vivo, mice; conditions: mice, brain tissue
T4 construct: from tissue; host or cells: mouse brain
T4 sequence (Q8BW75 1-520): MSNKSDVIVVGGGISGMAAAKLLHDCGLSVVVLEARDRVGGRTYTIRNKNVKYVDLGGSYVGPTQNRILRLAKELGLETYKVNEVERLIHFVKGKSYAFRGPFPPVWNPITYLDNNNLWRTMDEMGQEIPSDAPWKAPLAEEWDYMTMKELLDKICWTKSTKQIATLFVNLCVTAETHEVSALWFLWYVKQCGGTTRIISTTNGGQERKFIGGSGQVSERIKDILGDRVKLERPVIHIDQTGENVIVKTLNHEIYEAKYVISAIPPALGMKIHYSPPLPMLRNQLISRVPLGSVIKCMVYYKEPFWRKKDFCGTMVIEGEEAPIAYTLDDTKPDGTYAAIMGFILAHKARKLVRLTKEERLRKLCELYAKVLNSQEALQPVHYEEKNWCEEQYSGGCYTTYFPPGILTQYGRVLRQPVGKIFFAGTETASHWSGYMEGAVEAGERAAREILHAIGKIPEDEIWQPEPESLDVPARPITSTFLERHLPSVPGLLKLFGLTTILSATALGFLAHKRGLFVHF
Procedure: as §1, §2

[5] = molecular target: T5, whole brain AChE (Mus musculus, UniProt P21836); conditions: for AChE Inhibition Ex vivo ED50 (AC): mice, whole brain, at peak of activity; for AChE Inhibition Time to peak activity t / AChE Inhibition Time to return to 50% of peak t: mouse, in vivo
T5 sequence (P21836 32-614): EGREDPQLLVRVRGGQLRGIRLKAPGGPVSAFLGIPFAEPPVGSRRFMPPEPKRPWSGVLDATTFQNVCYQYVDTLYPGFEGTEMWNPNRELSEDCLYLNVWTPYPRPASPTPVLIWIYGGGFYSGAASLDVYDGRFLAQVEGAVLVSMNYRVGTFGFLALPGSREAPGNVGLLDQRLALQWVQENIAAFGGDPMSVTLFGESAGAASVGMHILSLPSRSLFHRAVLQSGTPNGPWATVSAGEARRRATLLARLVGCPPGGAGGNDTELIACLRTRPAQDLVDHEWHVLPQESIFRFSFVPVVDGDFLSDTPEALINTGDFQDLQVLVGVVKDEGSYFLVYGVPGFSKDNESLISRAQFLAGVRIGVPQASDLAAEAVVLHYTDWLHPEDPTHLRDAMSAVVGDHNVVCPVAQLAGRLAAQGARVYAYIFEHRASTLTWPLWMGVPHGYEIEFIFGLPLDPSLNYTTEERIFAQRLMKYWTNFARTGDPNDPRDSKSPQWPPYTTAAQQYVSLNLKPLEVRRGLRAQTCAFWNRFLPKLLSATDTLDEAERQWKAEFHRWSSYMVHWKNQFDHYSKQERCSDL

[6] = molecular target: T6, MAO-A (Rattus norvegicus, UniProt P21396); test: Inhibition of MAO activity in vitro, 5-HT as substrate; assay type: biochemical; set-up: The MAO enzyme source was a homogenate of rat brain in 0.3M sucrose; from tissue; host or cells: rat brain homogenate, 600 g supernatant; conditions: 5-HT substrate
T6 sequence (P21396 1-526): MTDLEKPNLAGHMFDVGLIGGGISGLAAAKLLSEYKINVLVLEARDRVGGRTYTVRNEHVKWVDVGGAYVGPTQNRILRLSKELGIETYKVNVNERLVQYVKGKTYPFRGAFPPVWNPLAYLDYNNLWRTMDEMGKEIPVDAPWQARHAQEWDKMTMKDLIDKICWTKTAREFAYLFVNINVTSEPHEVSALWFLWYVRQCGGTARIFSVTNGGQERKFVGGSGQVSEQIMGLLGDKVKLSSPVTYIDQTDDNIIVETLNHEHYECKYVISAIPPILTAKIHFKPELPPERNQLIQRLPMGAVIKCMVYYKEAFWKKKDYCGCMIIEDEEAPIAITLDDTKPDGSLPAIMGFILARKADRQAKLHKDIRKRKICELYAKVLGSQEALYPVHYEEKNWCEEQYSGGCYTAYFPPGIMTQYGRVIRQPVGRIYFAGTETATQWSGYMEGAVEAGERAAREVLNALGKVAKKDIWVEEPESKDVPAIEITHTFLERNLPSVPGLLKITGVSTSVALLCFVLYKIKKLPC
Procedure: as §1

[7] = test system: mice
Procedure: Therapeutic Ratio was calculated as LD50 divided by ED50 of ex vivo acetylcholine esterase inhibition.

[8] = rat brain homogenate, read-out: MAO-B Inhibition In vitro IC50
[9] = rat brain homogenate, read-out: MAO-A Inhibition In vitro IC50
[10] = MAO-B Inhibition In vitro IC50, rat brain homogenate
[11] = MAO-A Inhibition In vitro IC50, rat brain homogenate
[12] = mice, within 6 hours after administration

SMILES	IC50 [1, 8]	IC50 ([2]; AChE Inhibition In vitro IC50)	MAO-A Inhibition Ex vivo ED50 [3]	MAO-B Inhibition Ex vivo ED50 [4]	AChE Inhibition Ex vivo ED50 (AC) [5]	AChE Inhibition Time to peak activity t [5]	IC50 [6, 9]	Acute Toxicity LD50 (LD) ([7]; mouse, in vivo)	Therapeutic Ratio LD/AC ([7]; mouse, in vivo)	AChE Inhibition Time to return to 50% of peak t [5]	IC50 [1, 10]	IC50 [6, 11]	Acute Toxicity LD50 (LD) [7, 12]	IC50 ([2]; read-out: AChE Inhibition In vitro IC50)
C#CCNC1CCc2ccc(OC(=O)N(C)c3ccccc3)cc21 (centres unmarked) [Compound 62]	100 µM	0.57 µM	>>200 μmoles/kg	>>200 μmoles/kg	290 µmol/kg	60 min	80 µM	–	–	–	–	–	–	–
C#CCNC1CCc2ccc(OC(=O)N(C)CCCC)cc21 (centres unmarked) [Compound 81]	–	11.5 µM	>>100 μmoles/kg	>>100 μmoles/kg	40 µmol/kg	90 min	–	920 µmol/kg	23	>120 min	–	–	–	–
C#CCNC1CCc2ccc(OC(=O)N(C)C)cc21 (centres unmarked) [Compound 23]	–	–	–	–	22.4 µmol/kg	–	–	255 µmol/kg	–	70 min	600 µM	800 µM	–	–
C#CCN(CC)C1CCc2ccc(OC(=O)N(C)C)cc21 (centres unmarked) [Compound 31]	–	10 µM	>100 µmol/kg	>100 µmol/kg	110 µmol/kg	–	–	–	–	–	> 1000 µM	> 1000 µM	–	–
C#CCNC1CCc2c(OC(=O)N(C)CC)cccc21 (centres unmarked) [Compound 35]	–	2.2 µM	–	–	10 µmol/kg	60 min	–	33 µmol/kg	3.3	–	100 µM	< 1 µM	–	–
C#CCNC1CCc2c(OC(=O)N(C)C)cccc21 (centres unmarked) [Compound 34]	–	0.046 µM	–	–	0.65 µmol/kg	30 min	–	3.7 µmol/kg	5.7	–	100 µM	0.5 µM	–	–
CCN(C)C(=O)Oc1cccc2c1C(N)CC2 (centres unmarked) [Compound 5]	–	–	>>277 μmoles/kg	>>277 μmoles/kg	85.0 µmol/kg	60 min	–	–	–	>120 min	–	–	840 µmol/kg	–
C#CCNC1CCc2cccc(OC(=O)N(C)CC)c21 (centres unmarked) [Compound 33]	–	540 µM	>>1200 μmoles/kg	1000 µmol/kg	–	–	–	–	–	–	–	–	–	–
CNC1CCc2ccc(OC(=O)N(C)C)cc21 (centres unmarked) [Compound 8]	–	–	>>50 μmoles/kg	>>50 μmoles/kg	10.0 µmol/kg	15 to 30 min	50 µM	–	–	>60 min	–	–	87 µmol/kg	–
C#CCNC1CCc2ccc(OC(=O)NCCC)cc21 (centres unmarked) [Compound 57]	25 µM	–	–	–	70 µmol/kg	–	–	–	–	–	–	89 µM	–	2.4 µM
CCNC1CCc2ccc(OC(=O)N(C)C)cc21 (centres unmarked) [Compound 7]	–	–	–	–	–	–	–	–	–	–	> 1000 µM	600 µM	–	–
